From US8545834B2, “G-substrate for the treatment and prevention of parkinson's disease” (The McLean Hospital Corporation, priority 2007, dated 2013)

Experiments:
Format in all cases: cell-based, human
BE(2)-M17 cells = test: In vitro protection assays (MTS cell viability, LDH release) against neurotoxins; conditions: lentiviral overexpression in BE(2)-M17 cells, toxin 20 hrs
Procedure: Viability of the M17 cells was assessed following exposure to a variety of neurotoxins, each representing different aspects of PD pathology. 6-hydroxydopamine (6-OHDA) causes oxidative stress. MG-132 induces proteasome inhibition. And, MPP+ causes mitochondrial dysfunction by inhibiting Complex I. Cytotoxicity of M17 cells was determined using both cell viability assays and LDH release. G-substrate overexpression in M17 cells was confirmed by Western blot analysis (FIG. 3A) and by immunocytochemistry (FIG. 3B).
BE(2)-M17 cells were transduced with lentivirus expressing control or G-substrate with a multiplicity of infection 15. Cells were grown in Optimem™ (Invitrogen, Carlsbad, Calif.) supplemented with 10% heat-inactivated fetal calf serum (Hyclone, Logan, Utah), nonessential amino acid and sodium pyruvate. Cells were maintained at 37° C., in 5% CO2 humid atmosphere. For the bioassay, cells were plated in 96 well plates at 5000 per well. The next day, cells were treated with various concentrations of 6-OHDA (Sigma), MG-132 (Calbiochem) and MPP+ (Sigma) for 20 hrs. The supernatant was used to determine cytotoxicity using LDH release assay kit (Roche, Indianapolis, Ind.) and the cells remaining on the plate was used to determine cell viability using MTS based solution, CellTiter 96 AQueous One™ solution cell proliferation assay (Promega, Madison, Wis.).
Three different siRNAs for human G-substrate as described herein, a negative control siRNA, and a validated Akt siRNA (Ambion; Austin, Tex.) were used. Cells were plated in 96 well plates at 5000 per well with siRNAs and siPORT NeoFX transfection agent (Ambion, Austin, Tex.). After 48 hrs of incubation with siRNAs, each of the toxicants (6-OHDA, MG-132 or MPP+) were applied to the cells. Cell viability and cytotoxicity was measured after 20 hrs of toxin exposure.

PP2A = PP2A activity assay (immunoprecipitated PP2A, phosphopeptide, Malachite Green); conditions: BE(2)-M17 cells exposed to 50 μM 6-OHDA for 2 hours; versus control cells
Procedure: PP2A activity was measured in control BE(2)-M17 cells at various incubation times (t=0, 1, 2, 5 and 8 hr) after exposure to 50 μM 6-OHDA. […] Control, wild-type, and T123A G-substrate-expressing cells were then exposed to 50 μM 6-OHDA for 2 hours before measurement of PP2A activity.
PP2A activity was measured using a non-radioactive kit according to the manufacturer's instruction (Upstate Biotechnologies, Lake Placid, N.Y.). After 50 μM 6-OHDA exposure with various times, cells were harvested in 20 mM imidazole-HCl, 2 mM EDTA, 2 mM EGTA, pH7 with a protease inhibitor cocktail (Sigma). Protein concentrations of the lysates were measured using BCA assay (Pierce) and 500 μg of protein was immunoprecipitated using an anti-PP2A catalytic subunit antibody and protein A-Sepharose beads. Immunoprecipitated PP2A was then incubated with phosphopeptide (K-R-pT-I-R-R (SEQ ID NO: 8)) for 10 min at 37° C. Dephosphorylation of the phosphopeptide was assayed spectrophotometrically at 650 nm using Malachite Green.

VMAT2 = test: Western blot of VMAT2 expression in M17 cells
From the text: BE(2)-M17 cells were used to investigate the interaction between G-substrate and α-synuclein, a known risk factor and possible causative agent in Parkinson's disease. […] Likewise, VMAT2 expression was reduced in naïve M17 cells following the reduction in endogenous G-substrate using siRNA (FIG. 10C).
M17 cells transiently and stably overexpression α-synuclein were transfected using the G-substrate lentiviral vector described above.
The PP2A regulation of VMAT 2 was investigated in M17 cells. PP2A levels were reduced using RNAi. […] The effect of PP2A inhibition was not generalized to other dopaminergic markers tested.
Cells and tissue samples were collected from and suspended in lysis buffer containing: 50 mM Tris-HCl, 0.15 M NaCl, 0.32 M sucrose, 1.0 mM EDTA, and 1% NP-40. In addition, phosphatase inhibitors I and II (1:100) and protease inhibitors (1:100) were added fresh prior to cell lysis (Sigma-Aldrich, P2850, P5276, and P8340 respectively). Following cell lysis, the homogenate was centrifuged, a portion of the supernatant was reserved for protein determination (BCA Assay, Pierce, Rockford, Ill.) and the remaining was stored at −20° C. 20 μg (in vitro cell preps) and 50 μg (tissue dissections) of solubilized protein were mixed 1:1 with sample buffer and boiled for 5 min. The samples and molecular weight standards were separated using the Criterion precast 10% SDS-polyacrylamide gel system (Bio-Rad, Hercules, Calif.). After electrophoresis, the proteins were electrically transferred to PVDF membranes at 100 V for 30 min. After transfer, blots were incubated in Tris-buffered saline with 0.1% Tween 20 (TBS-T) containing 5% BSA. Subsequently, blots were incubated with the following antibodies at 4° C. overnight (1:1000 unless otherwise stated): phospho-Akt (ser473), phospho-GSK3β (ser9), phospho-erk1/2, and phospho-p38 (Cell Signaling Technologies, Danvers, Mass.). HRP-conjugated secondary antibodies were then applied and immunoreactive bands were visualized with chemiluminescence (Amersham Biosciences, Arlington Heights, Ill.) and exposed onto film. Immunoblots were then stripped and re-probed for the expression of the total protein (Cell Signaling) and beta-actin (1:10 000) (Abcam) to serve as a loading control. Optical density analysis (NIH image) was used to determine the relative abundance of protein in each sample. The optical densities of the phospho epitopes were standardized to their respective total proteins and this value was used in the statistical analyses.

## G-substrate: human wild type G-substrate (SEQ ID NO.: 1) overexpressed from a lentiviral vector
BE(2)-M17 cells
  protection against MPP+-induced toxicity (cell viability, LDH release): neither wild-type nor T123A mutant G-substrate overexpression was protective
BE(2)-M17 cells; compared to control
  neuroprotection against 6-OHDA toxicity (cell viability, LDH release): neuroprotective
  neuroprotection against MG-132 toxicity (cell viability, LDH release): neuroprotective
PP2A
  PP2A activity in G-substrate-expressing cells: significant reduction
VMAT2; M17 cells transiently and stably overexpressing α-synuclein
  VMAT2 expression in α-synuclein overexpressing cells: reversing the α-synuclein-induced loss of VMAT2
VMAT2; naïve M17 cells
  VMAT2 expression: significant increase
